Test results as given in US6369109B1, “Betulinic acid and derivatives thereof useful for the treatment of neuroectodermal tumor” (Deutsches Krebsforschungszentrum Stiftung des Offentlichen …, priority 1998, dated 2002).

How the values were obtained:
[1] = test system: mitochondria isolated from SHEP cells; assay: Cytochrome c release from isolated mitochondria (Western blot); type: biochemical, human; conditions: bongkrekic acid; FIG. 10C
Description: Cells were lysed for 30 min at 4° C. in PBS with 0.5% Triton X (Serva, Heidelberg, Germany) and 1 mM PMSF (Sigma, Deisenhofen, Germany) followed by high-speed centrifugation. Membrane proteins were eluted in buffer containing 0.1 M glycine, pH 3.0 and 1.5 M Tris, pH 8.8. Protein concentration was assayed using bicinchoninic acid (Pierce, Rockford, Ill.). 40 μg protein per lane was separated by 12% or 15% SDS-PAGE and electro blotted onto nitrocellulose (Amersharn, Braunschweig, Germany). Equal protein loading was controlled by Ponceau red staining of membranes. After blocking for 1 h in PBS supplemented with 2% BSA (Sigma) and 0.1% Tween 20 (Sigma), immunodetection of caspases-3 and -8, PARP, and cytochrome c protein was done using mouse anti-caspase-8 mAb C15 (Scaffidi et al., 1997, J. Biol. Chem. 272, 26953-26958, 1:5 dilution of hybridoma supernatant), mouse anti-caspase-3-specific mAb (1:1000, Transduction Laboratories, Lexington, Ky.), rabbit anti-PARP polyclonal antibody (1:10000, Enzyme Systems Products) or mouse anti-cytochrome c mAb (1:5000, PharMingen, San Diego, Calif.). Goat anti-mouse IgG or goat anti-rabbit IgG (1:5000, Santa Cruz Biotechnology) followed by ECL (Amersham) was used for detection.
Mitochondria isolated from SHEP cells transfected with bcl-2, Bcl-XL or a neontycin resistance vector only (Neo) were treated with 10 μg/ml betulinic acid. […]

[2] = test system: CD95-L and CD95 in SHEP cells transfected with Bcl-2, Bcl-XL or Neo; assay: Induction of CD95-L and CD95 (RT-PCR, Western blot, FACS); type: cell-based, human; conditions: 0.5 μg/ml Doxo or 10 μg/ml betulinic acid, 24 h, Bcl-2 or Bcl-XL cells, FIG. 13
Description: Cells were stained with anti-APO-1 (CD95) IgGl monoclonal antibody (moab) (1 μg/ml; Trauth et al., 1989, Science 245:301-305) for 45 minutes at 4° C. followed by goat anti-mouse IgG-FITC (Immunotech, Hamburg, Germany) for 30 minutes at 4° C. FII23 IgGl antibody was used as an isotype matched non-binding antibody to control unspecific binding.
Total RNA was prepared using the Qiagen total RNA kit (Qiagen, Hilden, Germany). RNA was converted to cDNA by reverse transcription and amplified for 38 cycles by PCR in a thermocycler (Stratagene, Heidelberg, Germany) using the Gene Amplification RNA-PCR kit (Perkin Elmer, Branchburg, N.J.) following the manufacturer's instructions. A 500-base pair fragment of CD95-L was amplified using primer 5′[…]3′ (SEQ ID:No 1) and 5′[…]3′ (SEQ ID NO:2) and a 311-base pair fragment of CD95 was amplified using primer 5′[…] […]
CD95-L mRNA expression was determined by RT-PCR. […] CD95-L protein was detected as a Mr 37,000 band by mouse anti-CD9S-L moab and enhanced chemiluminescence.
SHEP cells transfected with Bcl-2 or Bcl-XL or a neomycin resistance vector only (Neo) were treated (Lanes+) with 0.5 μg/ml Doxo or 10 μg/ml Bet A for 24 h. CD95 mRNA expression was determined by RT-PCR. […] For FACS analysis of CD95 protein expression (C), cells were stained with mouse anti-APO-1 moab followed Dy FITC-conjugated antimouse IgG antibody and analyzed by flow cytometry. […]

**Q.** CO[C@H](C/C=C\C=C\CC/C=C/C[C@H](C)/C=C/C(=C\C(=O)O)CC(=O)O)/C(C)=C\C=C(/C)C(=O)O [bongkrekic acid] was tested. Which “effect of inhibitor on betulinic acid-driven release of cytochrome c” value [1] did it give?
**A.** The value was “blocked”.

**Q.** For COc1cccc2c1C(=O)c1c(O)c3c(c(O)c1C2=O)C[C@@](O)(C(=O)CO)C[C@@H]3O[C@H]1C[C@H](N)[C@H](O)[C@H](C)O1 [doxorubicin], which “induction of CD95-L and CD95” value [2] is on record?
**A.** The value was “Both CD95-L and CD95 were induced at the mRNA and protein level”.
